Measured values as given in US12258336B2, “Preparation of seimicarbazide-sensitive amine oxidase inhibitor and use thereof” (SHANGHAI ENNOVABIO PHARMACEUTICALS CO., LTD., priority 2018, dated 2025).

How the values were obtained:
Type in all cases: biochemical
[1] = molecular target: T1, Recombinant human SSAO protein (Homo sapiens, UniProt Q16853); test: In vitro inhibitory activity on SSAO/VAP-1 (MAO-Glo assay), human
T1 construct: Eli Lilly (provided, not a catalogue product)
T1 sequence (Q16853 1-763): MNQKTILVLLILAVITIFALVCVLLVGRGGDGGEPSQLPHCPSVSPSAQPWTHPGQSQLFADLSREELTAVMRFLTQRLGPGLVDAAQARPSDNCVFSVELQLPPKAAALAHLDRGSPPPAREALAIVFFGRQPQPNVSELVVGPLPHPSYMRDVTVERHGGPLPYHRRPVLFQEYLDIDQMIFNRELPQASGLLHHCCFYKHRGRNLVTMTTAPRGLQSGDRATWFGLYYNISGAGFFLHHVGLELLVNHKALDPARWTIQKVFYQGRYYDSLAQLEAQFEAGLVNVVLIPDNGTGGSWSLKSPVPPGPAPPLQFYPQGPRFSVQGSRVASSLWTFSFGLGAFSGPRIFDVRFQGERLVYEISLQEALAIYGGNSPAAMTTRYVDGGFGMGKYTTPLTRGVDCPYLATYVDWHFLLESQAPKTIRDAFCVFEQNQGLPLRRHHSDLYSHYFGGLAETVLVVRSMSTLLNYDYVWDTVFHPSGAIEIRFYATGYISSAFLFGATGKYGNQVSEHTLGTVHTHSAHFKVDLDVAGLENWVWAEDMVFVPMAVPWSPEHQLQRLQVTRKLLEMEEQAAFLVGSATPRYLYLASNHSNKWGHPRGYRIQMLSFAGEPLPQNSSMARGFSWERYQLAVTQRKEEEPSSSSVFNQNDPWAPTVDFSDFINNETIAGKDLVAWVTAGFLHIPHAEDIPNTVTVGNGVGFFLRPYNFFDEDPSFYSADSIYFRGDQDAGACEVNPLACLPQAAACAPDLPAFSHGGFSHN
Method: This assay was used to evaluate the in vitro inhibitory activity of the compounds on SSAO/VAP-1 of different species. Recombinant human SSAO protein, mouse SSAO protein or rat SSAO protein (provided by Eli Lilly) were used. The enzyme activity detection kit, MAO-Glo Assay kit (V1402) was purchased from Promega. Enzyme reaction buffer (50 mM HEPES, 120 mM NaCl, 5 mM KCl, 2 mM CaCl2, 1.4 mM MgCl2, 0.001% Tween-20, pH7.4) was prepared. The test compound was dissolved in DMSO and diluted by 3-fold concentration in gradient. The final concentration of test compound in a 10 μL reaction system was 1 μM to 0.05 nM when SSAO was detected. The content of DMSO in the detection reaction was 1%. After the solution of test compound in DMSO was diluted in the enzyme reaction buffer at a volume ratio of 1:25, 2.5 μL of which was added to each well of detection plate, two replicates for each concentration. 5 μL of SSAO protein diluted in the enzyme reaction buffer was added to each well, the final concentration of which was 10 nM to 80 nM in 10 μL reaction system. The mixture was incubated at room temperature for 10 minutes. 2.5 μL of the reaction substrate diluted in the enzyme reaction buffer was added to each well, the final concentration of which was 10 μM in 10 μL reaction system. After the mixture was reacted at room temperature for 120 minutes, 10 μL of detection reagent was added to each well. The reaction solution was incubated for 20 minutes at room temperature, and the plate was read with Synergy Neo 2 for detection. The value was converted into inhibition rate by the following formula: Inhibition rate=(Signalpositive−Signaltest)/(Signalpositive−Signalnegative)×100%
Signalpositive was positive control without test compound. Signalnegative was negative control without test compound and SSAO enzyme, and Signaltest was detection value of each compound at different concentrations. IC50 value was calculated by using 4 parameter curve fitting.

Recombinant human MAO-A = molecular target: T2, Recombinant human MAO-A (Homo sapiens, UniProt P21397); test: Inhibitory activity on MAO-A
T2 construct: purchased Sigma M7316
T2 sequence (P21397 1-527): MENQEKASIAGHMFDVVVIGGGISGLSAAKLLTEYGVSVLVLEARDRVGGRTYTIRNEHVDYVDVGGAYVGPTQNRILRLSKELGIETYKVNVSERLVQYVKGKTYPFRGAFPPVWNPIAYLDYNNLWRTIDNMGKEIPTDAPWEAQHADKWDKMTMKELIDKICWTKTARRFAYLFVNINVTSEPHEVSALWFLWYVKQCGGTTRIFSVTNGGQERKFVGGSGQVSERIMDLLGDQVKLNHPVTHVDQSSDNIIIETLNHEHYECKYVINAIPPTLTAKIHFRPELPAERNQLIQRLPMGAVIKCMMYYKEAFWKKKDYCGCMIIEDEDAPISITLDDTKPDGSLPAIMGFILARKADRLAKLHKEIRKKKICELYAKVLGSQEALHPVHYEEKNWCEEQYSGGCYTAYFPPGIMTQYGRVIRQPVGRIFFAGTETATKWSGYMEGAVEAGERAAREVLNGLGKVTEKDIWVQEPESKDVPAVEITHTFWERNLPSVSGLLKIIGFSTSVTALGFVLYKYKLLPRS
Method: (§1) Recombinant human MAO-A and MAO-B protein was purchased from Sigma (M7316, M7441). Other reagents are the same as Biological Test Example 1. The final concentration of test compound in 10 μL reaction system was 100 μM to 5 nM when MAO-A and MAO-B were detected. The final concentrations of MAO-A and MAO-B protein in 10 μL reaction system were 70 nM and 300 nM, respectively, while other reaction conditions were the same as those in Biological Test Example 1. Data analysis and IC50 calculation method were the same as those in Biological Test Example 1.

Recombinant human MAO-B = molecular target: T3, Recombinant human MAO-B (Homo sapiens, UniProt P27338); test: Inhibitory activity on MAO-B
T3 construct: purchased Sigma M7441
T3 sequence (P27338 1-520): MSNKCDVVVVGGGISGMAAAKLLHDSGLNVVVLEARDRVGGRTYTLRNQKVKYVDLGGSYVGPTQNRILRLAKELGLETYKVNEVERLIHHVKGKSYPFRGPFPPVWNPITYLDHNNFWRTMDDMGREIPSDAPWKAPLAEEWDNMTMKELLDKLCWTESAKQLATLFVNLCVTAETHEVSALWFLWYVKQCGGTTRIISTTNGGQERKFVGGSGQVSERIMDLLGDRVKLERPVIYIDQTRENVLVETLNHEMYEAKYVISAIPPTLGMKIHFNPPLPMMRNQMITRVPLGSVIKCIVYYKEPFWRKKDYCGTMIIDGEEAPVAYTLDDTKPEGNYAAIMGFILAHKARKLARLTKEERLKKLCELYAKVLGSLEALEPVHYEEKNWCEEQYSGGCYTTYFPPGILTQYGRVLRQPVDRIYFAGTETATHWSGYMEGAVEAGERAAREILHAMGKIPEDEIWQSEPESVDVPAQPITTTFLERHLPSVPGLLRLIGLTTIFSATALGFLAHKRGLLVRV
Method: as §1

NC/C(=C\F)COc1cnc(N2CC3(COC3)C2)nc1 [Example 11]
IC50 [1]: > 0.05 µM | IC50 (Recombinant human MAO-A): 2 to 100 µM | IC50 (Recombinant human MAO-B): > 20 µM
